Data as given in US20110201564A1, “SUBSTITUTED 7-SULFANYLMETHYL, 7-SULFINYLMETHYL AND 7-SULFONYLMETHYL INDOLES AND USE THEREOF” (BAYER SCHERING PHARMA AKTIENGESELLSCHAFT, priority 2008, published 2011).
Where two headings read alike, the source gives them in different places.

How the values were obtained:
[1] = molecular target: T1, human mineralocorticoid receptor (MR) (Homo sapiens, UniProt P08235); assay: Cellular in vitro assay, GAL4-MR chimera luciferase reporter in CHO K1 cells (inhibitory MR activity); type: cell-based; conditions: antagonism vs aldosterone; CHO K1 GAL4-MR LBD luciferase reporter
T1 construct: expressed in transfected cells; host or cells: CHO K1
T1 sequence (P08235 734-984 limits assumed): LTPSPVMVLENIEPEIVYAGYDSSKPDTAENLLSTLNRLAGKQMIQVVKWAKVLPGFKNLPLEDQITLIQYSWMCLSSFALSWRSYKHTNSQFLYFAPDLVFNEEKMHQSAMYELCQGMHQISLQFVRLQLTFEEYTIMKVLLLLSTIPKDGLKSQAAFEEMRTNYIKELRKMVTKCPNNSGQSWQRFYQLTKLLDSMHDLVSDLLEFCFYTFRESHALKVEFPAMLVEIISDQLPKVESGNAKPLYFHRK
Source text: (§1) 1. Cellular In Vitro Assay to Determine the Inhibitory MR Activity and MR Selectivity Compared with Other Steroid Hormone Receptors
(§2) Antagonists of the human mineralocorticoid receptor (MR) are identified, and the activity of the compounds described herein is quantified with the aid of a recombinant cell line. The cell is originally derived from a hamster ovary epithelial cell (Chinese Hamster Ovary, CHO K1, ATCC: American Type Culture Collection, VA 20108, USA).
(§3) An established chimera system in which the ligand-binding domains of human steroid hormone receptors are fused to the DNA-binding domain of the yeast transcription factor GAL4 is used in this CHO K1 cell line. The GAL4-steroid hormone receptor chimeras produced in this way are cotransfected and stably expressed with a reporter construct in the CHO cells.
(§4) To generate the GAL4-steroid hormone receptor chimeras, the GAL4 DNA-binding domain (amino acids 1-147) from the vector pFC2-dbd (from Stratagene) is cloned with the PCR-amplified ligand-binding domains of the mineralocorticoid receptor (MR, amino acids 734-985), of the progesterone receptor (PR, amino acids 680-933) and of the androgen receptor (AR, amino acids 667-919) into the vector pIRES2 (from Clontech). The reporter construct, which comprises five copies of the GAL4 binding site upstream of a thymidine kinase promoter, leads to expression of firefly luciferase (Photinus pyralis) after activation and binding of the GAL4-steroid hormone receptor chimeras by the respective specific agonists aldosterone (MR), dexamethasone (GR), progesterone (PR) and dihydrotestosterone (AR).
(§5) The MR, PR and AR cells are plated out in medium (Optimem, 2.5% FCS, 2 mM glutamine, 10 mM HEPES) in 96- (or 384- or 1536-)well microtiter plates on the day before the assay and are kept in a cell incubator (96% humidity, 5% v/v CO2, 37° C.). On the day of the assay, the substances to be tested are taken up in the abovementioned medium and added to the cells. About 10 to 30 minutes after addition of the test substances, the respective specific agonists of the steroid hormone receptors are added. After a further incubation time of 5 to 6 hours, the luciferase activity is measured with the aid of a video camera. The measured relative light units as a function of the substance concentration result in a sigmoidal stimulation curve. The IC50 values are calculated with the aid of the GraphPad PRISM computer program (Version 3.02).

[2] = molecular target: T2, androgen receptor (AR) (Homo sapiens, UniProt P10275); assay: Cellular in vitro assay, GAL4-AR chimera luciferase reporter in CHO K1 cells (selectivity); type: cell-based; conditions: antagonism vs dihydrotestosterone; CHO K1 GAL4-AR LBD luciferase reporter
T2 construct: of the androgen receptor (AR, amino acids 667-919); expressed in transfected cells; host or cells: CHO K1
T2 sequence (P10275 668-920): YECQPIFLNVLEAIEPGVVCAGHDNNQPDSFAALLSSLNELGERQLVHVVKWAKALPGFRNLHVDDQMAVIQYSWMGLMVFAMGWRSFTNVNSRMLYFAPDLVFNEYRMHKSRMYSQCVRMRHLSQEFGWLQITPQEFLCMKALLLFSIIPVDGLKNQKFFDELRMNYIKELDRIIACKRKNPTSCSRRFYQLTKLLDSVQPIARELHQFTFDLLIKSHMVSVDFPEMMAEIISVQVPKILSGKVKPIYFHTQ
Source text: as §1, §2, §3, §4, §5

[3] = molecular target: T3, progesterone receptor (PR) (Homo sapiens, UniProt P06401); assay: Cellular in vitro assay, GAL4-PR chimera luciferase reporter in CHO K1 cells (selectivity); type: cell-based; conditions: antagonism vs progesterone; CHO K1 GAL4-PR LBD luciferase reporter
T3 construct: of the progesterone receptor (PR, amino acids 680-933); expressed in transfected cells; host or cells: CHO K1
T3 sequence (P06401 680-933): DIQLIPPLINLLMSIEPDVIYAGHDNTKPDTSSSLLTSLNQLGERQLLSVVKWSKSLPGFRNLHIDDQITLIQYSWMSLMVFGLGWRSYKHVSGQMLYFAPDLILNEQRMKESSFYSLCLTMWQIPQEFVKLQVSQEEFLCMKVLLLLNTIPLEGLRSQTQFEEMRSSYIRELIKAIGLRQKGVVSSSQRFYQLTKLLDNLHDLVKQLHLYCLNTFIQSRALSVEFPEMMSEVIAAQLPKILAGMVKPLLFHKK
Source text: as §1, §2, §3, §4, §5

[4] = molecular target: T4, CYP3A4 (Homo sapiens, UniProt P08684); assay: CYP inhibition assay with human liver microsomes; type: in vitro ADME
T4 construct: using human liver microsomes (pool from various individuals); from tissue; host or cells: human liver microsomes (pool from various individuals)
Source text: Inhibitory properties of an active ingredient on the cytochromes P450 (CYP) of the human body may entail extensive clinical effects (drug interactions) because most of the prescribed medicaments are degraded (metabolized) by these enzymes. The ones involved in this are in particular the CYP isoenzymes of the 1A and 2C families, CYP2D6 and, with a proportion of almost 50%, CYP3A4. In order to preclude or minimize these possible drug interactions (Drug-Drug Interactions, DDI), the ability of substances to be able to inhibit CYP1A2, CYP2C8, CYP2C9, CYP2D6 and CYP3A4 in humans is investigated using human liver microsomes (pool from various individuals). This takes place by measuring CYP isoform-specific metabolites formed from standard substrates such as, for example, phenacetin, amodiaquin, diclofenac, dextromethorphan, midazolam and testosterone. The inhibitory effects are investigated at six different concentrations of the test compounds (1.5, 3.1, 6.3, 12.5, 25 and 50 μM as maximum concentration or 0.6, 1.3, 2.5, 5, 10 and 20 μM as maximum concentration), comparing with the extent of the CYP isoform-specific metabolite formation of the standard substrates in the absence of the test compounds, and calculating the corresponding IC50 values. CYP isoform-specific standard inhibitors such as, for example, fluvoxamine, quercetin, sulfaphenazole, fluoxetine and ketoconazole serve as control of the results obtained. In order to obtain indications of the possible mechanism-based inhibitors (MBI) on CYP3A4, the human liver microsomes are incubated in the presence of the inhibitor to be investigated for 30 minutes before the addition of midazolam or testosterone as standard substrates of CYP3A4. A reduction in the IC50 obtained by comparison with the mixture without preincubation serves as an indicator of a mechanism-based inhibition. Mibefradil serves as positive control.
The incubations of the standard substrates with human liver microsomes (23-233 μg/mL) in the presence of the test compound (as potential inhibitor) are carried out in 96-well plates in a workstation (Tecan, Genesis, Crailsheim, Germany) at 37° C. The incubation times are 15-20 minutes. The test compounds are preferably dissolved in acetonitrile (1.0 or 2.5 mM stock solution). The 96-well plates are produced by sequential addition of a stock solution of NADP+, EDTA, glucose 6-phosphate and glucose-6-phosphate dehydrogenase in phosphate buffer (pH 7.4), the test compound, and a solution of standard substrate and human liver microsomes in phosphate buffer (pH 7.4). The total volume is 200 μl. The corresponding control incubations with and without standard inhibitor also take place on the 96-well plate. The incubations are stopped after the respective incubation time by adding 100 μl of acetonitrile in which there is a suitable internal standard. Precipitated proteins are removed by centrifugation (3000 rpm, 10 minutes, 10° C.). The resulting supernatants of the respective plates are combined on one plate and analyzed by LC-MS/MS. The […] values are generated from the resulting measured data and used to assess the inhibitory potential of the test compound.

[5] = 30 min preincubation with test compound before substrate, read-out: CYP 3A4 Preincubation, 30 min.
[6] = without preincubation, read-out: CYP 3A4 Coincubation

T4 sequence (P08684 whole entry): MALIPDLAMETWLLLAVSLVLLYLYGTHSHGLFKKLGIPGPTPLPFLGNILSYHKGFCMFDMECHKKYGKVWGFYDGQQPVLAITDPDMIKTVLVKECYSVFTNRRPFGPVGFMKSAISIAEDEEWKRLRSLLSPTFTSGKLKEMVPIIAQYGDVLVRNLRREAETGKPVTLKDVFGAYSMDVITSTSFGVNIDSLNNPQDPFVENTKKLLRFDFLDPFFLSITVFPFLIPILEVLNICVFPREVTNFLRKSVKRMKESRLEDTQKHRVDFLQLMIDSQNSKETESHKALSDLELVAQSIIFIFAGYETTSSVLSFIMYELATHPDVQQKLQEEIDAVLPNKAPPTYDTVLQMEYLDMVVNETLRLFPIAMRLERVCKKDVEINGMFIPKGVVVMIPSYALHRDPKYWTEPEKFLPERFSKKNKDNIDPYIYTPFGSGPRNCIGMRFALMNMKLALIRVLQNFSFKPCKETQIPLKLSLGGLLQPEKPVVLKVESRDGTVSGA

Structure (SMILES) | IC50 [1] [µM] | IC50 [2] [µM] | IC50 [3] [µM] | IC50 [4, 5] [µM] | IC50 [4, 6] [µM]
CS(=O)(=O)Cc1cccc2c(C(c3ccc(F)cc3F)C3CC3)c[nH]c12 (stereo not drawn) [Example 250, 3-[Cyclopropyl(2,4-difluorophenyl)methyl]-7-[(methylsulfonyl)methyl]-1H-indole] | 0.27 | 1.6 | 10 | 19.4 | > 20
CS(=O)(=O)Cc1cccc2c(C(c3ccc(Cl)cc3Cl)C3CC3)c[nH]c12 (stereo not drawn) [Example 242, 3-[Cyclopropyl(2,4-dichlorophenyl)methyl]-7-[(methylsulfonyl)methyl]-1H-indole] | 0.066 | 1.39 | 3.77 | 15.8 | > 20
CS(=O)(=O)Cc1cccc2c(C(c3ccc(Cl)cc3)C3CC3)c[nH]c12 (stereo not drawn) [Example 249, 3-[(4-Chlorophenyl)(cyclopropyl)methyl]-7-[(methylsulfonyl)methyl]-1H-indole] | 0.069 | 3.45 | 9.73 | 18.3 | > 20
CS(=O)(=O)Cc1cccc2c(C(c3ccc(C(F)(F)F)cc3Cl)C3CC3)c[nH]c12 (stereo not drawn) [Example 245, 3-{[2-Chloro-4-(trifluoromethyl)phenyl](cyclopropyl)methyl}-7-[(methylsulfonyl)methyl]-1H-indole] | 0.12 | 3.45 | – | > 20 | > 20
Cc1ccc(C(CCC#N)c2c[nH]c3c(CS(C)(=O)=O)cccc23)cc1 (stereo not drawn) [Example 166, 4-(4-Methylphenyl)-4-{7-[(methylsulfonyl)methyl]-1H-indol-3-yl}butanonitrile] | 0.22 | – | 10 | 17.6 | > 20
CS(=O)(=O)Cc1cccc2c(C(c3c(F)cc(Cl)cc3F)C3CC3)c[nH]c12 (stereo not drawn) [Example 252, 3-[(4-Chloro-2,6-difluorophenyl)(cyclopropyl)methyl]-7-[(methylsulfonyl)methyl]-1H-indole] | 0.071 | 3.03 | 10 | > 20 | > 20
CC(CCC#N)(c1ccc(Cl)cc1)c1c[nH]c2c(CS(C)(=O)=O)cccc12 (stereo not drawn) [Example 171, 4-(4-Chlorophenyl)-4-{7-[(methylsulfonyl)methyl]-1H-indol-3-yl}-pentanonitrile] | 0.03 | 3.2 | 2.23 | 7.8 | > 20
CS(=O)(=O)Cc1cccc2c(C(c3ccc(Cl)cc3)C3CC3(F)F)c[nH]c12 (single isomer, unassigned) [Example 261-2, 3-[(4-Chlorophenyl)(2,2-difluorocyclopropyl)methyl]-7-[(methylsulfonyl)methyl]-1H-indole] | 0.028 | 6.06 | 5.24 | 15 | > 20
C[S+]([O-])Cc1cccc2c(C3(C4CC4)CCc4cc(F)ccc43)c[nH]c12 (mixture of isomers) [Example 120, 3-(1-Cyclopropyl-5-fluoro-2,3-dihydro-1H-inden-1-yl)-7-[(methylsulfinyl)methyl]-1H-indole] | 0.15 | – | 5.51 | 14.4 | > 20
